Results from US8748369B2, “Use of targeted nitroxide agents in bone healing” (University of Pittsburgh-Of the Commonwealth System of …, priority 2009, dated 2014).
Values joined by “and” are separate entries in the source; they are usually repeats but may differ in a detail not shown here. Equal entries are not always repeated. Where a SMILES comes first, the peptide text is derived from it. [ ]: non-standard residue; d: D form. The star is where a group is joined. NH(TEMPO-4-yl) = CC1(C)CC(N*)CC(C)(C)N1[O]; Orn = NCCC[C@H](N)C(=O)O; Cbz = O=C(OCc1ccccc1)*; Boc = CC(C)(C)OC(=O)*

What was measured:
[1] = tested on: KM101 human marrow stromal cells; assay: Irradiation survival curves of KM101 cells; type: cell-based
Description: KM101 cells were incubated in media alone or in JP4-039 (10 μM) for one hour before irradiation or 24 hours after irradiation. The cells were irradiated to doses ranging from 0 to 6 Gy and plated in 4 well plates. Seven days later the cells were stained with crystal violet and colonies of greater than 50 cells counted. Cells incubated in JP4-039 either before or after irradiation were more radioresistant as shown by an increased shoulder of n=2.3±0.2 or 2.2±0.2, respectively compared to n of 1.1±0.1for the KM101 cells (p=0.0309 or 0.0386, respectively).

[2] = tested on: C57BL/6NHsd mice, tibial bone wounds; assay: Unicortical tibial bone wound healing with or without 20 Gy limb irradiation; type: in vivo, mouse
mouse embryonic cells = assay: Gamma-irradiation dose survival curves of mouse embryonic cells; type: cell-based; details: 20 μM pre- (10-min) or post-treated (1-h)
Description: Cells were plated in 35-mm Petri dishes with 2 ml culture medium at a density between 100 and 1000 cells per dish. Cells were treated with GS-nitroxide (XJB-5-125) either before (10-min) or after (1-h) γ-irradiation. XJB-5-125 was removed from the medium 4-h post-irradiation. Colonies were fixed and stained with 0.25% crystal violet and 10% formalin (35% v/v) in 80% methanol for 30 min after a 9-day incubation period, and those of ≧50 cells were counted as survivors. The surviving fraction was calculated as the plating efficiency of the samples relative to that of the control.
Cells were pre- (10-min) or post-treated (1-h) with XJB-5-125 (20 μM), which was removed after 4-h incubation period. The surviving fraction was calculated as the plating efficiency of the samples relative to that of the control. The data was fitted to a single-hit multitarget model using SigmaPlot 9.0 (Systat Software). Data presented are the mean±S.E. (n=3).

[3] = tested on: 32D cl 3 murine hematopoietic cells; assay: Irradiation survival curves of 32D cl 3 cells; type: cell-based, mouse; details: cells incubated in compound
Description: FIG. 16 illustrates the effect of GS conjugated nitroxide, XJB-5-125, on gamma-irradiation dose survival curves of 32D cl 3 murine hematopoietic cells.
Irradiation survival curves were performed on cells from the 32D cl 3 mouse hematopoietic progenitor cell line, incubated in 10 μM JP4-039 for 1 hour before irradiation, or plated in methycellulose containing 10 μM JP4-030 after irradiation. Cells were irradiated from 0 to 8 Gy, plated in 0.8% methycellulose containing media, and incubated for 7 days at 37° C. Colonies of greater than 50 cells were counted and data analyzed by linear quadratic and single-hit, multi-target models.

[4] = Topical and transdermal absorption through mouse skin (Bronaugh diffusion cell, EPR); type: in vitro ADME; details: preliminary experiment
Description: A small piece of skin (2 cm^2) was placed in a Bronaugh style flow-through diffusion cell system (PermeGear, Riegelsville, Pa.) (FIG. 22). It was then sandwiched between two pieces of the inert polymer Kel-F and clamped shut to prevent leakage. The epidermal side faces upward and is exposed to the donor solution (test solution), and the dermal side is in contact with the receptor fluid. The exposed surface area is 0.79 cm^2 (circular chamber with 1 cm diameter). The skin forms a water-tight seal in the flow through chamber so the receiving fluid (PBS+25% ethanol) on the dermal side will contain the XJB-5-125 only if it has penetrated through the skin. The receiver chamber was perfused with this buffer that then passes to a fraction collector via Teflon tubing. The PBS+25% ethanol was used because it is an effective sink for hydrophobic compounds and produces better in vitro/in vivo correlations than other receiver solutions. The skin was maintained at 32° C. by placing the chamber in a metal block heated via a recirculating water bath. […]
EPR spectra were recorded at 334.7 mT, center field; 20 mW, power; 0.079 mT, field modulation; 5 mT, sweep width; 400 and 4000, receiver gain; 0.1 s, time constraint. […]
Further, the total transdermal absorption after 24 hours and the level of XJB-5-125 present in the viable skin can be successfully measured using the techniques described herein. […]

Structure (SMILES) | n (shoulder on the survival curve) ([1]; 10 μM 24 hours after irradiation) | change in Do ([1]; 10 μM before or after irradiation) | n (shoulder on the survival curve) ([1]; 10 μM one hour before irradiation) | bone wound healing in the absence of RT ([2]; 0 Gy) | Hole Diameter, mean ± SEM ([2]; 0 Gy, Day 7 post-drilling) | Hole Diameter, mean ± SEM ([2]; 0 Gy, Day 14 post-drilling) | Hole Diameter, mean ± SEM ([2]; 0 Gy, Day 21 post-drilling) | Hole Diameter, mean ± SEM ([2]; 0 Gy, Day 28 post-drilling) | Hole Diameter, mean ± SEM ([2]; 20 Gy, Day 7 post-drilling) | Hole Diameter, mean ± SEM ([2]; 20 Gy, Day 14 post-drilling) | Hole Diameter, mean ± SEM ([2]; 20 Gy, Day 21 post-drilling) | Hole Diameter, mean ± SEM ([2]; 20 Gy, Day 28 post-drilling) | RT-induced delay in osseus wound healing ([2]; given prior to 20 Gy RT) | histology: bone fill of wounds versus irradiated mice ([2]; pre-treated prior to irradiation) | radiation mitigation and protection (FIG. 15 survival curves) (mouse embryonic cells) | Do of gamma-irradiation survival curve [3] | n (shoulder on the survival curve) [3] | penetration of intact skin [4]
CC(C)C[C@@H](/C=C/CC(=O)NC1CC(C)(C)N([O])C(C)(C)C1)NC(=O)OC(C)(C)C [JP4-039, (S,E)-5-(tert-Butoxycarbonylamino)-7-methyloct-3-enoic acid-TEMPO] | 2.2±0.2 | no significant change | 2.3±0.2 | conferred more rapid healing | 1.02 ± 0.07 mm | 0.6±0.05 mm and 0.55±0.03 mm | 0.47 ± 0.04 mm | 0.23 ± 0.04 mm | 1.14 ± 0.04 mm | 0.92 ± 0.08 mm | 0.5±0.05 mm and 0.51±0.05 mm | 0.4±0.04 mm and 0.37±0.04 mm | ameliorated this RT-induced delay | more bone fill |  |  |  | 
CC(C)C[C@H](NC(=O)OC(C)(C)C)C(=O)N[C@H](Cc1ccccc1)C(=O)N1CCC[C@H]1C(=O)N[C@H](C(=O)N[C@@H](CCCNC(=O)OCc1ccccc1)C(=O)NC1CC(C)(C)N([O])C(C)(C)C1)C(C)C [XJB-5-125] (Boc-L[dF]PV[Orn](Cbz)-{NH(TEMPO-4-yl)}) |  |  |  |  |  |  |  |  |  |  |  |  |  |  | radiation mitigator as well as a protector | 1.138 Gy | 18.24 | can sufficiently penetrate intact skin
